The source of these data is patent US20080207632A1, “PROTEIN KINASE INHIBITORS” (SUPERGEN, INC., priority 2006, published 2008).

In one test the target is T1, aurora-2 kinase (Homo sapiens, UniProt O14965).
T1 construct: purchased Upstate, Lake Placid, N.Y; host or cells: sf9 cells
T1 sequence (O14965 1-403): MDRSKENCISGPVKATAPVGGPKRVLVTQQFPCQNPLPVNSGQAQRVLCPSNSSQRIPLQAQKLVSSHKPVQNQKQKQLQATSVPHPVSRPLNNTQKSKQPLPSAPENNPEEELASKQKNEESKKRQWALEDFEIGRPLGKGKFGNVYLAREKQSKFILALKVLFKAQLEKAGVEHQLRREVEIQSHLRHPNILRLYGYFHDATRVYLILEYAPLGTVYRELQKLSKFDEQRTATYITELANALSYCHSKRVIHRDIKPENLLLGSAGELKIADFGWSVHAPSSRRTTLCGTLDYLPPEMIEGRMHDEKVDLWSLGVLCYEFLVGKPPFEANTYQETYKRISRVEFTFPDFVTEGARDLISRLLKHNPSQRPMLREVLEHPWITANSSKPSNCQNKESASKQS
Put plainly: aurora-2 kinase inhibition assay (Kinase-Glo, ATP remaining). Type of test: biochemical. The following applies: Example 54, Table 8; 3 μM ATP; read-out: Aurora-2 Inhibition, IC50. The procedure: In this assay kinase activity was determined by quantifying the amount of ATP remaining in solution following a kinase reaction by measuring the light units (LU) produced by luciferase using a luminometer. Percent inhibition was determined for individual compounds by comparing luminometer readings of drug-treated reactions to controls containing no drug (DMSO control) and no Aurora-2 enzyme (ATP control) in the following equation: […]
(§1) In a 50 μl reaction, recombinant aurora-2 kinase produced in sf9 cells (Upstate, Lake Placid, N.Y.) was incubated at 30° C. for two hours with 62.5 μM Kemptide (Calbiochem, San Diego, Calif.), 3 μM ATP (Invitrogen, Carlsbad, Calif.) and kinase reaction buffer (40 mM Tris-HCl, 10 mM MgCl2 and 0.1 μg/μl bovine serum albumin (BSA)). This reaction was carried out in the presence of drug substances, which had been previously diluted to desired concentrations in DMSO. After incubation, 50 μl of Kinase-Glo® (Promega, Inc., Madison, Wis.) solution was added to each reaction mixture and allowed to equilibrate for 10 minutes at room temperature. Kinase-Glo solution contains luciferase enzyme and luciferin, which react with ATP to produce light. Kinase activity is determined by quantifying the amount of ATP remaining in solution following the kinase reaction by measuring the light units (LU) produced by luciferase using a luminometer (Thermo-Electron, Vantaa, Finland).
Briefly, kinase activity was determined by quantifying the amount of ATP remaining in solution following a kinase reaction by measuring the light units (LU) produced by luciferase using a luminometer. Percent inhibition was determined for individual compounds by comparing luminometer readings of drug-treated reactions to controls containing no drug (DMSO control) and no Aurora-2 enzyme (ATP control) in the following equation: […]
as §1, with “μg/Il” for “μg/μl”
Illustrative compounds 2-3, 2-5, 2-7, 2-4 and 2-9 were evaluated in an aurora-2 kinase inhibition assay. In this assay kinase activity was determined by quantifying the amount of ATP remaining in solution following a kinase reaction by measuring the light units (LU) produced by luciferase using a luminometer. Percent inhibition was determined for individual compounds by comparing luminometer readings of drug-treated reactions to controls containing no drug (DMSO control) and no Aurora-2 enzyme (ATP control) in the following equation: […]
A general note: In Kinase-Glo more light means more ATP remaining.

The test system of test [1] is MDA-MB-231 breast carcinoma cells. In words: cell proliferation assay (Cell-Titer-Glo), MDA-MB-231. Format: cell-based. The following applies: Homo sapiens, Example 65, 96 hours, read-out: IC50 (reduce cell number to 50% of untreated controls). The procedure: Cell culture-based assays can be used to evaluate the ability of compounds of the invention to inhibit one or more cellular activities, such as cancer cell growth and/or survival. Numerous cancer cell lines can be obtained from the American Type Culture Collection (ATCC) and other sources. Briefly, cells are seeded into 96-well, tissue-culture treated, opaque white plates (Thermo Electron, Vantaa, Finland), at between 5000 and 10000 cells per well, depending on the speed of cell proliferation, in 100 μl of appropriate growth medium (determined by the ATCC). Cells are then exposed to the appropriate concentration of drug or an equal amount of DMSO (drug diluent) and allowed to grow in its presence for 96 hours. Following this, 100 μl of Cell-Titer-Glo reagent (Promega, Inc., Madison, Wis.) is added to each well. Plates are then shaken for 2 minutes at room temperature to allow for cell lysis and incubated for 10 minutes to stabilize the luminescent signal. Similar to the Kinase-Glo assay reagent from Promega, this reagent contains both luciferase enzyme and its substrate luciferin. Luciferase, activated by ATP in the cell lysate, catalyzes the conversion of luciferin to oxyluciferin, a reaction which produces light. The amount of light produced is proportionate to the amount of ATP in the cell lysate, which is itself proportional to cell number and gives an index of cellular proliferation.
Compound 1-1 and Compound 2-11 were tested in a cell proliferation assay to determine potency in a cell-based assay format. Briefly, MDA-MB-231 breast carcinoma cells were inoculated onto 96-well plates and incubated in the presence of compounds for 96 hours. Following incubation, cells were lysed and ATP content used as a surrogate for cell number, using the Cell-Titer-Glo Luminescent Cell Viability Assay Kit (Promega Corp.). IC50 values, representing the concentration required to reduce cell number to 50% of untreated controls, were determined to be 20 uM for Compound 1-1 and 10 uM for Compound 2-11.

Test [2] has as its target T2, phosphorylated Axl in MDA-MB-231 breast carcinoma cells (Homo sapiens, UniProt P30530).
T2 construct: endogenous in cells; host or cells: MDA-MB-231 breast carcinoma cells
Put plainly: Axl autophosphorylation sandwich ELISA in cells. Type of test: cell-based. Conditions: 10 uM, 48 hours. The method, then:
Compound 2-11 was examined in a cell-based assay to determine its ability to reduce the activity of the Axl kinase enzyme in cell culture. Axl, like many receptor tyrosine kinases, autophosphorylates in response to growth factor stimulation. Briefly, MDA-MB-231 breast carcinoma cells were plated in 25 cm^2 tissue culture flasks and incubated in the presence of varying concentrations of Compound 2-11 for 48 hours. Following incubation, cells were lysed and the presence of phosphorylated Axl was detected using a commercially available sandwich ELISA assay kit (R&D Systems Inc.). […] For example, at concentrations as low as 10 uM, levels of phosphorylated Axl were reduced to less than 50% of those observed for untreated control samples.
On the technique in general: ELISA stands for enzyme-linked immunosorbent assay.

Test [3] deals with Granta-4 lymphoma cell line. In words: lymphoma cell number reduction, Granta-4. Type of test: cell-based. The following applies: 48 hours; read-out: IC50 Values Granta-4, single agent. The procedure: (§2) New IC50 values were calculated for the second agent in an effort to determine whether or not pretreatment with one compound would increase sensitivity to the other. As set forth in the table below, compound 2-3 pretreatment led to an increased sensitivity to Taxol®, however Taxol® pretreatment appeared to be […] to compound 2-3 in this assay.

Test [4] concerns Granta-22 lymphoma cell line. Put plainly: lymphoma cell number reduction, Granta-22. Format: cell-based. The following applies: 48 hours; read-out: IC50 Values Granta-22, single agent. The method, then:
as §2

The IC50 is the concentration needed to halve the response being measured.

T2 sequence (P30530 26-894): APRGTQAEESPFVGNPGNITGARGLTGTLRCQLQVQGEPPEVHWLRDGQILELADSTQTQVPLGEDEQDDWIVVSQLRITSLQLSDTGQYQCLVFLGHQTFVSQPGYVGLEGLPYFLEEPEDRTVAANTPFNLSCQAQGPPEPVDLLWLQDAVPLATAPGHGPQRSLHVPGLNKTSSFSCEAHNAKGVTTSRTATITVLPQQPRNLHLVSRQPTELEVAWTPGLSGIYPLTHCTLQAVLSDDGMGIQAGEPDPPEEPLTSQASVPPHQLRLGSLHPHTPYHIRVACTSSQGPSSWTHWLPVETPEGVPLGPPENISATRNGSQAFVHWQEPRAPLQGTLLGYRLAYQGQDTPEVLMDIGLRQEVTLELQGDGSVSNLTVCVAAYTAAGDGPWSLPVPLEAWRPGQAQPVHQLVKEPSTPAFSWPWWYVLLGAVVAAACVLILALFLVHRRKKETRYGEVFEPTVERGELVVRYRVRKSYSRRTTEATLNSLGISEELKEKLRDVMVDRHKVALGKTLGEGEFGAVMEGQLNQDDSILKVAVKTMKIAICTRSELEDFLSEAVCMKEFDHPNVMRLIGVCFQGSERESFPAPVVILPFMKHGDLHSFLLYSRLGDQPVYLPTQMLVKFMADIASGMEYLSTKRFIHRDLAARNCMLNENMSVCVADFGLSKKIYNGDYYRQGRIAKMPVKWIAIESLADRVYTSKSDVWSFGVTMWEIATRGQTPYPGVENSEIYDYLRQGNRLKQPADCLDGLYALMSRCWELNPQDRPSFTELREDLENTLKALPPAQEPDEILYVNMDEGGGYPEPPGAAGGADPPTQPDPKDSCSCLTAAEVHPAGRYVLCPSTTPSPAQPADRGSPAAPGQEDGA

For the compound `COc1cc2[nH]c3ncnc(N4CCN(C(=S)Nc5ccc(S(=O)(=O)Nc6ccc(C(F)(F)F)cc6)cc5)CC4)c3c2cc1OC` [Compound 2-4, 4-(6,7-dimethoxy-9H-pyrimido[4,5-b]indol-4-yl)-N-(4-(N-(4-trifluoronethylhenyl)sulfamoyl)phenyl)piperazine-1-carbothioamide], the IC50 at aurora-2 kinase is 153 nM.

For the compound `CCc1nnc(NS(=O)(=O)c2ccc(NC(=S)N3CCN(c4ncnc5[nH]c6ccc(Cl)cc6c45)CC3)cc2)s1` [Compound 2-11], the IC50 in test [1] turned out to be 10000 nM. Also, the “levels of phosphorylated Axl relative to untreated control samples” value in test [2] was “less than 50%”. As to `CC(=O)O[C@H]1C(=O)[C@@]2(C)[C@H]([C@H](OC(=O)c3ccccc3)[C@]3(O)C[C@H](OC(=O)[C@H](O)[C@@H](NC(=O)c4ccccc4)c4ccccc4)C(C)=C1C3(C)C)[C@]1(OC(C)=O)CO[C@@H]1C[C@@H]2O` [Taxol ®, reference compound], the IC50 was found to be 301 nM in test [3] and 2720 nM in test [4].
